According to US9050378B2, “N2S2 chelate-targeting ligand conjugates” (Board of Regents, The University of Texas System, priority 2003, dated 2015):
Ends that are not written are not given here.

How the values were obtained:
[1] = test system: RBA CRL-1747 mammary tumor; experiment: Biodistribution in breast (mammary) tumor-bearing rats; format: in vivo, rat; details: iv
Experimental: Biodistribution was assessed in mammary tumor-bearing rats (RBA CRL-1747, n=3/time interval, iv). Studies were performed 14 to 17 days after implantation when tumors reached approximately 1 cm in diameter. Following administration of the radiotracer, rats were sacrificed at 0.5-4 hrs. The selected tissues were excised, weighed and counted for radioactivity by using a gamma counter (Packard Instruments, Downers Grove, Ill.). The biodistribution of tracer in each sample was calculated as percentage of the injected dose per gram of tissue wet weight (% ID/g).
Biodistribution was assessed in breast tumor-bearing rats (RBA CRL-1747, n=3/time interval, iv). Studies were performed 14 to 17 days after implantation when tumors reached approximately 1 cm in diameter. Following administration of the radiotracer, rats were sacrificed at 0.5-4 hrs. The selected tissues were excised, weighed and counted for radioactivity by using a gamma counter (Packard Instruments, Downers Grove, Ill.). The biodistribution of tracer in each sample was calculated as percentage of the injected dose per gram of tissue wet weight (% ID/g).

[2] = test system: RBA CRL-1747 (breast cancer cells); experiment: In vitro cellular uptake compared to ^99mTc-EC in breast cancer cells; format: cell-based, rat; details: 0.5-2 hrs
Experimental: An in vitro cell culture using tumor cells was incubated with ^99mTc-EC-celecoxib (4 μCi/50,000 cells/well) at 0.5-2 hrs in RBA CRL-1747.
An in vitro cell culture using tumor cells was incubated with ^99mTc-EC-LH antibody (4 μCi/50,000 cells/well) at 0.5-2 hrs in RBA CRL-1747 (breast cancer cells).
An in vitro cell culture using tumor cells was incubated with ^99mTc-EC-carnitine (4-6 μCi/50,000 cells/well) at 0.5-2 hrs in breast cancer cells.

[3] = test system: human prostate cancer cells (LNCap, PC-3); experiment: In vitro cellular uptake in human prostate cancer cells; format: cell-based; details: 0.5-2 hrs, LNCap and PC-3
Experimental: An in vitro cell culture using tumor cells was incubated with ^99mTc-EC-LHRH (4-6 μCi/100,000 cells/well) at 0.5-2 hrs in human prostate cancer cells. Two types cell lines were used. They are either sensitive to androgen (LNCap) or unresponsive to androgen (PC-3) therapy.

## Cc1ccc(-c2cc(C(F)(F)F)nn2-c2ccc(S(=O)(=O)NC(=O)NCC(=O)NCCNC(=O)C3C[S][99Tc]45(=[O])[S]CC(C(=O)O)[N]4CC[N]35)cc2)cc1 (stereo not drawn) [^99mTc-EC-celecoxib]
[1]; 0.5-4 hrs
  tumor-to-tissue count density ratios: increased tumor-to-tissue count density ratios as a function of time
[1]; 30 min
  BONE & JOINT: 0.324 ± 0.036 % of injected dose per gram of tissue weight
  BONE/MUSCLE: 2.419 ± 0.225
  Blood: 2.293 ± 0.038 % of injected dose per gram of tissue weight
  Heart: 0.475 ± 0.025 % of injected dose per gram of tissue weight
  Intestine: 0.406 ± 0.039 % of injected dose per gram of tissue weight
  Kidney: 4.963 ± 0.147 % of injected dose per gram of tissue weight
  Liver: 1.556 ± 0.046 % of injected dose per gram of tissue weight
  Lung: 1.033 ± 0.035 % of injected dose per gram of tissue weight
  Muscle: 0.133 ± 0.007 % of injected dose per gram of tissue weight
  Spleen: 0.594 ± 0.298 % of injected dose per gram of tissue weight
  Stomach: 0.370 ± 0.010 % of injected dose per gram of tissue weight
  Thyroid: 0.784 ± 0.090 % of injected dose per gram of tissue weight
  Tumor: 0.587 ± 0.062 % of injected dose per gram of tissue weight
  Tumor/Blood: 0.255 ± 0.022
  Tumor/Muscle: 4.375 ± 0.304
  UTERUS: 0.595 ± 0.003 % of injected dose per gram of tissue weight
  UTERUS/BLOOD: 0.259 ± 0.003
  UTERUS/MUSCLE: 4.471 ± 0.257
[1]; 2 h
  BONE & JOINT: 0.190 ± 0.003 % of injected dose per gram of tissue weight
  BONE/MUSCLE: 3.058 ± 0.114
  Blood: 1.388 ± 0.063 % of injected dose per gram of tissue weight
  Heart: 0.283 ± 0.017 % of injected dose per gram of tissue weight
  Intestine: 0.276 ± 0.061 % of injected dose per gram of tissue weight
  Kidney: 6.088 ± 0.305 % of injected dose per gram of tissue weight
  Liver: 1.461 ± 0.049 % of injected dose per gram of tissue weight
  Lung: 0.712 ± 0.098 % of injected dose per gram of tissue weight
  Muscle: 0.062 ± 0.003 % of injected dose per gram of tissue weight
  Spleen: 0.965 ± 0.056 % of injected dose per gram of tissue weight
  Stomach: 0.187 ± 0.004 % of injected dose per gram of tissue weight
  Thyroid: 0.449 ± 0.015 % of injected dose per gram of tissue weight
  Tumor: 0.424 ± 0.019 % of injected dose per gram of tissue weight
  Tumor/Blood: 0.307 ± 0.018
  Tumor/Muscle: 6.876 ± 0.704
  UTERUS: 0.334 ± 0.034 % of injected dose per gram of tissue weight
  UTERUS/BLOOD: 0.240 ± 0.021
  UTERUS/MUSCLE: 5.442 ± 0.852
[1]; 4 h
  BONE & JOINT: 0.178 ± 0.022 % of injected dose per gram of tissue weight
  BONE/MUSCLE: 4.314 ± 0.739
  Blood: 1.031 ± 0.033 % of injected dose per gram of tissue weight
  Heart: 0.224 ± 0.004 % of injected dose per gram of tissue weight
  Intestine: 0.190 ± 0.006 % of injected dose per gram of tissue weight
  Kidney: 6.363 ± 0.260 % of injected dose per gram of tissue weight
  Liver: 1.506 ± 0.080 % of injected dose per gram of tissue weight
  Lung: 0.500 ± 0.011 % of injected dose per gram of tissue weight
  Muscle: 0.002 ± 0.004 % of injected dose per gram of tissue weight
  Spleen: 0.981 ± 0.041 % of injected dose per gram of tissue weight
  Stomach: 0.139 ± 0.004 % of injected dose per gram of tissue weight
  Thyroid: 0.372 ± 0.021 % of injected dose per gram of tissue weight
  Tumor: 0.406 ± 0.004 % of injected dose per gram of tissue weight
  Tumor/Blood: 0.395 ± 0.014
  Tumor/Muscle: 9.715 ± 0.387
  UTERUS: 0.263 ± 0.005 % of injected dose per gram of tissue weight
  UTERUS/BLOOD: 0.255 ± 0.005
  UTERUS/MUSCLE: 6.278 ± 0.199
[2]
  cellular uptake compared to ^99mTc-EC: significant increase in uptake

## ^99mTc-EC-LHRH (QHWSYGLRPG; also: 99mTc-ethylenedicysteine label, site not given here; UniProt P01148 24-33, looked up)
[3]
  cellular uptake compared to ^99mTc-EC: significant increased uptake
